Data as given in US20090264382A1, “Methods for Treating Hematopoietic Neoplasms” (priority 2007, published 2009).
Values belong to the compound of their own block, whether it stands above or below them. Where a SMILES comes first, the peptide text is derived from it. The star is where a group is joined. Cbz = O=C(OCc1ccccc1)*; CH2F = FC*

Key:
Format in all cases: cell-based, human
HL60 cells = test: Reversal of CA4P-induced apoptosis by caspase inhibitors and ROS scavenger, Annexin V/PI
Procedure: Leukemic cells were treated with or without CA4P for 48 hours in presence of caspase inhibitor Q-VD and the percentage of apoptotic leukemic cells was determined by Annexin V and propidium iodide staining using flow cytometry. Percentage of alive Annexin V(−)/PI(−) cells was plotted.
HL-60 cells were treated with or without CA4P for 48 hours in presence of another ROS scavenger, deferoxamine (DFX), and caspase inhibitor Q-VD and the percentage of apoptotic leukemic cells was determined by Annexin V and propidium iodide staining using flow cytometry.

KG1a leukemic cells = test: Release of nuclear HMG1 protein into supernatant (necrosis marker), Western blot; conditions: 24 hours, CA4P 20 mM, staurosporine 100 μM as printed
Procedure: Nonetheless, to rule out the possibility that CA4P may trigger necrotic cell death in subsets of the leukemic cells, the release of nuclear HMG1 protein into the culture supernatant, which has been described as a sensitive and highly specific marker for necrotic cell death (Scaffidi, et al. 2002. Nature 418, 191-5), was quantified. For detection of HMG1 protein, KG1a leukemic cells (1×106 in 2 ml X-vivo/5% FBS) were incubated with 100 μM staurosporine to induce apoptosis, freeze-thawed three times to induce necrosis, or treated with 20 mM CA4P for 24 hours. Cells were spun down, pelleted and the supernatant subjected to Western blot for HMG135.

caspase-3 = test: CA4P-induced caspase-3 activation
[1] = test system: leukemic cells (HL60, R81, U937, KG1a, THP-1); test: Protection from CA4P-mediated cell death by ascorbic acid, trypan blue exclusion; conditions: CA4P 5 or 10 nM, 48 hours
Procedure: Leukemic cells were treated with 5 nM (HL60, R81, U937) or 10 nM (KG1a, THP-1) for 48 hours with the ascorbic acid concentrations indicated and viable cells determined by trypan blue exclusion. Results of three experiments in triplicate are expressed as percentage of viable cells compared to control±SEM (*p<0.05 as compared with CA4P-untreated cells; n=3).

leukemic cells = test: Intracellular ROS detection with H2DCFDA
Procedure: Intracellular ROS were detected as previously described (Krejsa & Schieven, Methods Mol Biol 99:35-47 (2000)). Briefly, leukemic cells were loaded with 2 μM H2DCFDA (Molecular Probes) in assay buffer (RPMI with 10 mM HEPES) for 30 min. at 37° C. and mean fluorescent intensity was measured by flow cytometry. Results are shown from triplicate measurements (±SEM) and are representative of three independent experiments (*p<0.05 as compared with untreated cells; n=3).

SMILES: CC(=O)N(O)CCCCCNC(=O)CCC(=O)N(O)CCCCCNC(=O)CCC(=O)N(O)CCCCCN [DFX, deferoxamine]
- inhibition of CA4P-induced cell death (HL60 cells; HL60, DFX together with caspase inhibitor Q-VD, 48 hours): up to 71%

SMILES: CN[C@@H]1C[C@H]2O[C@@](C)([C@@H]1OC)n1c3ccccc3c3c4c(c5c6ccccc6n2c5c31)C(=O)NC4 [staurosporine, reference compound]
- release of nuclear HMG1 protein into the supernatant (KG1a leukemic cells): not

- CA4P-induced caspase-3 activation (caspase-3): blocked
SMILES: COC(=O)C[C@H](NC(=O)[C@H](C)NC(=O)[C@@H](NC(=O)OCc1ccccc1)C(C)C)C(=O)CF [Z-VAD-fmk] (Cbz-Val-Ala-Asp(OMe)-CH2F)
- effect on CA4P-induced apoptosis (HL60 cells; data not shown): no effect

SMILES: O=C1O[C@H]([C@@H](O)CO)C(O)=C1O [ascorbic acid, reference compound]
- effect of co-incubation on CA4P-mediated cell death [1]: partial decrease in CA4P-mediated cell death
- effect on CA4P-induced ROS accumulation (leukemic cells): reversal of ROS accumulation

- CA4P-induced caspase-3 activation (caspase-3): blocked
SMILES: CC(C)[C@H](NC(=O)c1ccc2ccccc2n1)C(=O)N[C@@H](CC(=O)O)C(=O)COc1c(F)cccc1F [Q-VD, Q-VD-OPh]
- CA4P induced apoptosis blocked (HL60 cells; HL60 cells, 48 hours, Annexin V/PI): 33%
